These results are taken from patent US11235020B2, “Methods and compositions for inhibiting glyoxalase 1 (GLO1)” (priority 2013, dated 2022).

In one data set the test system is glycine receptors. Nature of the data set: Glycinergic currents in CGN. Format: cell-based, rat. Conditions: 10 μM MG. The source says:
Ligand-gated currents: Ligand-gated currents were studied in voltage-clamp mode by application of reagents to cells held at −50 mV. GABAergic and glycinergic currents were activated by application of GABA and glycine and antagonized by application of SR and strychnine, respectively (Kaneda 1995). Glutamatergic currents were activated by 1-glutamate and antagonized by CNQX and AP-5 (Wyllie 1994).

In data set [1] the test system is anxiety-like behavior and locomotion in mice. In words: Open field (OF) test. The class given is in vivo, mouse. The procedure: OF test: Mice were placed into the center of the OF, and activity was monitored for five to ten minutes. The apparatus was illuminated to approximately 40 lux. Data were collected and processed using the manufacturer's software (AccuScan Instruments).
OF test: Ten minutes post-injection, mice were placed into the center of the OF. The apparatus was illuminated to approximately 40 lux. Behavior was measured as described above.
OF test replication studies: Ten to twenty minutes post-injection, mice were tested in the OF for five to ten minutes. In some experiments, behavior was scored as described above. In other experiments, mice were tested in the OF, and behavior was automatically scored by the Noldus Ethovision System. For mice tested in the Noldus system, the apparatus was illuminated to approximately 1,000 lux.
Chronic MG administration: For five days, mice were injected twice daily with vehicle or MG (4 mg/kg). Twelve hours after the final injection, mice were tested in the OF as described above.
Pure MG: Pure MG was obtained from Dr. John Termini at the City of Hope, Duarte, Calif. It was administered at the indicated doses by i.p. injection. Mice were tested as described above.
OF test: Two hours post-injection, mice were tested in the OF test as described above. The center size was 10×10 cm. The apparatus was illuminated to approximately 40 lux.

The subject of data set [2] is motor coordination in mice. In words: Balance beam test. The class given is in vivo, mouse. Conditions: 300 mg/kg i.p., B6 mice. As to the method: The balance beam was 97 cm×9.5 mm and elevated to 46 cm. Mice were tested on the balance beam, and missteps were counted.
Balance beam: The balance beam test was performed as described above. Ten minutes post-injection, mice were tested on the balance beam, and missteps were recorded.

In a further data set the test system is sodium currents. Nature of the data set: Voltage-gated sodium currents in CGN. Format: cell-based, rat. Conditions: 10 μM MG. The procedure:
Sodium currents: Sodium currents were studied as previously described (Plant 2006) using a bath solution containing 130 mM NaCl, 5 mM CsCl, 2 mM CaCl2, 1.2 mM MgCl2, 5 mM glucose, and 10 mM HEPES adjusted to pH 7.4 with NaOH. 500 nM tetrodotoxin (Sigma) was included in the bath […]. The electrode solution contained 60 mM CsCl, 80 mM CsF, 10 mM EGTA, 1 mM CaCl2, 1 mM MgCl2, 5 mM Na2ATP, and 10 mM HEPES adjusted to pH 7.4 with CsOH. All voltage-gated currents were studied following a P/5 leak subtraction protocol, and voltage-clamp errors were minimized with 80% series resistance compensation.

For data set [3], the system named is GABAA receptors in hippocampal neurons. Nature of the data set: Whole-cell patch clamp in hippocampal neurons (HN). Format: cell-based, rat. The procedure:
(§1) Reagents: All reagents were obtained from Sigma-Aldrich.
Neurons were maintained in neurobasal medium with B27 supplement and glutamax in a humidified atmosphere with 5% CO2 at 37° C.
(§2) Filter and sampling frequencies were 5 and 25 kHz, respectively, for voltage-clamp experiments and 1 and 10 kHz, respectively, for current-clamp recording. Experiments were performed at 32° C. using a feedback-controlled heated perfusion system (Warner Instruments). Vm, ligand-gated currents, and potassium channel currents were studied in a bath solution containing 1 mM CaCl2, 1 mM MgCl2, 4 mM KCl, 140 mM NaCl, 5 mM glucose, and 10 mM HEPES (pH 7.4). […] Electrodes were coated with Sigmacote (Sigma) prior to use.
(§3) Ligand-gated currents: Ligand-gated currents were studied in voltage-clamp mode by application of reagents to cells held at −50 mV.
For orientation: The patch-clamp technique gives a direct electrical read-out from membranes.

The subject of data set [4] is GABAA receptors in cerebellar granule neurons. Nature of the data set: Whole-cell patch clamp in cerebellar granule neurons (CGN). Format: cell-based, rat. As to the method: as §1
Culture of rat CGN: CGN were cultured from mixed-sex Sprague-Dawley rats. Tissue was dissected from 6- to 8-day-old rats. Cells were suspended in minimal essential medium supplemented with 10% fetal calf serum, 26 mM glucose, 19 mM KCl, 2 mM 1-glutamine, and penicillin/streptomycin (50 IU/ml and 50 μg/ml). Cells were seeded on poly-1-lysine-coated coverslips and incubated in a humidified atmosphere containing 5% CO2 at 37° C. After 48 hours, the culture medium was replaced with minimal essential medium supplemented with 10% horse serum, 26 mM glucose, 19 mM KCl, 2 mM 1-glutamine, penicillin/streptomycin (50 IU/ml and 50 μg/ml), and 80 μM 1-fluorodeoxyuridine. Culture medium was exchanged every three days. All recordings were made from cells between days 6 to 9 in culture.
as §2, §3

Another data set concerns potassium currents. In words: Potassium currents in CGN. The conditions noted are these: 10 μM MG. The class given is cell-based, rat. From the text: Potassium currents: Voltage-gated potassium channel currents were evoked using a previously reported protocol with modifications (Plant 2006). The whole voltage-gated potassium current, IK+, and the delayed rectifier current, IDR were isolated with two voltage protocols. First, IK+ was evoked by 250 ms test pulses to between −80 and 90 mV from −80 mV following a 250 ms pre-pulse to −140 mV. Then, the protocol was repeated using a −50 mV pre-pulse to inactivate IK+ and isolate IDR. The inactivating component of the current, IKA, was isolated by subtracting IDR from IK+ recorded in the same cells. The standing outward potassium leak current, IKso, and the inwardly rectifying potassium current, IKIR, were studied as previously reported with modifications (Plant 2002). Cells were held at −20 mV, and the membrane potential was ramped to −120 mV over a period of 100 ms before returning to −20 mV. Ramp hyperpolarizations were repeated every 20 seconds.

The next data set concerns mice. In words: Observation of sedation or gross deficits in treated mice. Conditions: MG 300 mg/kg, WT B6 mice, data not shown.
The test system of another data set is CD-1 mice. Nature of the data set: Accelerating rotarod. The conditions noted are these: MG 300 mg/kg. The class given is in vivo, mouse. The procedure: On day 1, mice were trained on the rotarod for five consecutive trials. […] The latency to fall and the rotarod speed at the time of the fall were recorded.
(In general: In the rotarod test animals must keep their balance on a rotating rod.)

Another data set has as its system anxiety-like behavior. Conditions: intracerebroventricular MG for six days (Hambsch 2010); cited from earlier work.
Where [5] appears, read: MG 50 mg/kg i.p., male WT B6 mice, 10 min post-injection.

SMILES strings stand for the structures. Where “and” joins values, the source holds several entries; their conditions need not be identical. Identical values can stand only once. Like-named read-outs stand apart in the source and are kept apart here.

What is called EC50 is the midpoint of the concentration-response curve. Take `CC(=O)C=O` [MG, methylglyoxal]: in the data set with glycine receptors, the “activation of glycine receptors” value is “did not activate”. In [1] (MG 4 mg/kg i.p. twice daily for five days, tested on the sixth day), the “anxiety-like behavior in the OF after chronic treatment” value is given as “significant reduction in anxiety-like behavior”. Further, in data set [1] (MG 50 mg/kg i.p., CD-1 mice), the “center time in the OF” value is reported as “increased center time in the OF” and the “distance traveled in the OF” value is “without affecting distance traveled”. Also, the “anxiety-like behavior in the OF in mice with the Glo1 duplication” value in [1] (MG 50 mg/kg i.p., CD-1 mice with Glo1 duplication) was “reduced anxiety-like behavior in mice with the Glo1 duplication”. Besides, in [1] (setting [5]), the “distance traveled in the OF” value is listed as “without affecting distance traveled” and the “increase in center time in the OF” value is recorded as “approximately 30%”. The “persistence of anxiolytic effect after injection” value in data set [1] (MG 50 mg/kg i.p., separate cohorts tested at different intervals) was at most 20 min. Besides, the “Cohen's d, meta-analysis of anxiolytic effect in the OF test” value in [1] (MG 50 mg/kg i.p., seven experiments, total n = 181, fixed-effect model) was 0.78 and 0.7798. For the same compound, the “locomotion in the OF” value in data set [1] (MG 100 mg/kg, WT B6 mice) was “decreased locomotion in the OF”. Besides, the “footslips on the balance beam (ataxia)” value in data set [2] is on record as “made more footslips than vehicle-treated mice”. The “effect on major sodium currents” value in the data set on sodium currents is on record as “did not affect the major sodium currents”. Also, in data set [3], the “peak response versus GABA in hippocampal neurons” value is recorded as “approximately one-third of those evoked by GABA”. The EC50 in data set [4] (read-out: EC50 of evoked inward currents in CGN, whole-cell voltage clamp) is 12 ± 0.7 µM. In data set [4] (whole-cell current clamp, read-out: EC50 of depolarization of CGN), the half-maximal effective concentration (EC50) stood at 10.5 ± 0.5 µM. Further, in the data set with potassium currents, the “effect on potassium currents” value was “did not affect”. Further, the sedation result with mice is “caused sedation”. Further, the “speed at fall from accelerating rotarod (ataxia)” value with CD-1 mice was “fell from an accelerating rotarod at slower speeds than vehicle-treated mice”. In the data set with anxiety-like behavior, the “anxiety-like behavior in the EPM” value is given as “reduced anxiety-like behavior in the EPM”.
